The values below come from patent USRE38103E1, “5-methanesulfonamido-1-indanones as an inhibitor of cyclooxygenase-2” (Merck Frosst Canada & Co., priority 1992, dated 2003).

In one data set the target is T1, cyclooxygenase-2 (Homo sapiens, UniProt P35354).
T1 construct: Cells used for whole cell assays, and from which microsomes were prepared for microsomal assays, were human osteosarcoma 143 cells; endogenous in cells; host or cells: human osteosarcoma 143 cells (whole cells or microsomes)
T1 sequence (P35354 18-604): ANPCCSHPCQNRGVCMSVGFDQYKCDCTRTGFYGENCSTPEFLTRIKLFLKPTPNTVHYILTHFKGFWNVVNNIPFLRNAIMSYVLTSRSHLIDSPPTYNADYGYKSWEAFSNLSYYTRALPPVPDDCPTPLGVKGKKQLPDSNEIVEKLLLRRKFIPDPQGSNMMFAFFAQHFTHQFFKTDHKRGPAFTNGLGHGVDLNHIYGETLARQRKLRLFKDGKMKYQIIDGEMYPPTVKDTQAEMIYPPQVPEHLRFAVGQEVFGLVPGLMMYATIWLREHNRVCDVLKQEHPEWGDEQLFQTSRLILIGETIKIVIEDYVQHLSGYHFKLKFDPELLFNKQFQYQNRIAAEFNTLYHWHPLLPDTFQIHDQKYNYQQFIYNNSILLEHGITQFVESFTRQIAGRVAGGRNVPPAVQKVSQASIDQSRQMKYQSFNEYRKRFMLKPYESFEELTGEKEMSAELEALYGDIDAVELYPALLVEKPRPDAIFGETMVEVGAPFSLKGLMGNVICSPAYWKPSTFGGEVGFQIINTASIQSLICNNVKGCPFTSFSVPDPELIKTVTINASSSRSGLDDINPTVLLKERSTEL
Put plainly: Inhibition of cyclooxygenase-2 activity (PGE2 synthesis in response to arachidonic acid, radioimmunoassay; whole cell and microsomal assays). The settings on record: for IC50: read-out: COX-2 IC50. In kind it is cell-based. The method, then:
(§1) Compounds were tested as inhibitors of cyclooxygenase activity in whole cell and microsomal cyclooxygenase assays. Both of these assays measured prostaglandin E2 synthesis in response to arachidonic acid, using a radioimmunoassay. Cells used for whole cell assays, and from which microsomes were prepared for microsomal assays, were human osteosarcoma 143 cells (which specifically express cyclooxygenase-2) and human U-937 cells (which specifically express cyclooxygenase-1). In these assays, 100% activity is defined as the difference between prostaglandin E2 synthesis in the absence and presence of arachidonate addition.
(§2) In the assay, inhibition is determined by measuring the amount of prostaglandin E2 (PGE2) synthesized in the presence of arachidonic acid, cyclooxygenase-1 or cyclooxygenase-2 and a putative inhibitor.

The target in the next data set is T2, cyclooxygenase-1 (Homo sapiens, UniProt P23219).
T2 construct: human U-937 cells (which specifically express cyclooxygenase-1); endogenous in cells; host or cells: human U-937 cells (whole cells or microsomes)
Nature of the data set: Inhibition of cyclooxygenase-1 activity (PGE2 synthesis in response to arachidonic acid, radioimmunoassay; whole cell and microsomal assays). Format: cell-based. The note with it: for COX-1 inhibition (result in words, with concentration): human U-937 cells, concentration stated in the cell; for IC50: table of prepared examples, read-out: COX-1 IC50. How it is done:
as §1, §2

The next data set deals with paw edema. Nature of the data set: Rat paw edema assay (carrageenan). The settings on record: po; for Rat Paw EDEMA ED30: 1 hr before carrageenan, paw volume 3 hr later; for Rat Paw Edema ED50: table of prepared examples. In kind it is in vivo. How it is done:
One hr later, a line was drawn using a permanent marker at the level above the ankle in one hind paw to define the area of the paw to be monitored. The paw volume (VO) was measured using a plethysmometer (Ugo-Basile, Italy) based on the principle of water displacement. […] The animals were sacrificed by CO2 aphyxiation and the absence or presence of stomach lesions scored. Data were compared with the vehicle-control values and percent inhibition calculated. […] At least 6 animals were used at each concentration All treatment groups were coded to eliminate observer bias.
In general terms: The carrageenan paw model is a standard test of acute inflammation.

Another data set can be described thus: Rat plasma levels. In kind it is in vivo.
The nature of data set [1]: Monkey pharmacokinetics (Cmax, t1/2). Format: in vivo.

Like-named read-outs stand apart in the source and are kept apart here.

T2 sequence (P23219 24-599): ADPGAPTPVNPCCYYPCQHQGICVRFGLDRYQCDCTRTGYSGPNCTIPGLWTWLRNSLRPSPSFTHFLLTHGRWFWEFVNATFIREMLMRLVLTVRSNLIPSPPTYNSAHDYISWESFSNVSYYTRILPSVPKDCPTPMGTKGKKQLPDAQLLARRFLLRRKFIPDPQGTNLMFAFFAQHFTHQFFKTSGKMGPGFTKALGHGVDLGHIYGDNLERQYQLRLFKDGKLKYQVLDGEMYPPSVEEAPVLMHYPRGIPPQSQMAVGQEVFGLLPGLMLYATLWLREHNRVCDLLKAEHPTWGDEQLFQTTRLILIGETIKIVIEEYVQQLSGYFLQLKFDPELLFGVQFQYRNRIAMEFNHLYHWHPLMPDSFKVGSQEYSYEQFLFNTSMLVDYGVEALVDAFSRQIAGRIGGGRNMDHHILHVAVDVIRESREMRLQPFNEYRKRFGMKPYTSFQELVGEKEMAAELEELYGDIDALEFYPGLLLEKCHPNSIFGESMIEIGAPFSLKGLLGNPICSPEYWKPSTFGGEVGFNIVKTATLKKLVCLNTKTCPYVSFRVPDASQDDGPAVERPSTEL

Usually IC50 stands for the concentration that gives 50% inhibition. On to `CS(=O)(=O)Nc1cc2c(cc1Oc1ccccc1)C(=O)CC2` [Compound 1, reference compound], for which, on cyclooxygenase-2 (table of prepared examples), the IC50 came to 30 nM.
Same read-out and setting: the value for `CS(=O)(=O)Nc1cc2c(cc1Oc1ccc(Br)cc1)C(=O)CC2` [Compound 2] was 9 nM.
As to `CS(=O)(=O)Nc1cc2c(cc1Oc1ccc(F)cc1F)C(=O)CC2` [Compound 3, Flosulide, reference compound], at cyclooxygenase-1, the “COX-1 inhibition (result in words, with concentration)” value was “Inactive at 50 μM” and the IC50 was over 50000 nM. Moreover, in the data set on paw edema, the “Rat Paw EDEMA ED30” value was 1.1 ± .4 mpk and the “Rat Paw Edema ED50” value is on record as 0.62 mpk. The “Rat Plasma Levels @ 1 hr” value in the data set “Rat plasma levels” (20 mpk) is recorded as 48 @ 20 mpk μg/ml. For the same compound, the “Monkey Cmax” value in data set [1] (10 mpk) was 17 @ 10 mpk μg/ml. Also, the “t½ Monkey (n = 2) (Estimated)” value in data set [1] (n = 2, estimated) is under 4 h.
As for `CS(=O)(=O)Nc1cc2c(cc1Oc1ccc(Cl)cc1Cl)C(=O)CC2` [Compound 4, 5-Methanesulfonamido-6-(2,4-dichlorophenoxy)-1-indanone], on cyclooxygenase-2 (human osteosarcoma 143 cells, PGE2 synthesis), the IC50 is 8 nM. On cyclooxygenase-1, the “COX-1 inhibition (result in words, with concentration)” value was “Inactive at 100 μM” and the half-maximal inhibitory concentration (IC50) is over 100000 nM. In the data set on paw edema, the “Rat Paw EDEMA ED30” value stood at 0.22 mpk and the “Rat Paw Edema ED50” value came to 0.22 mpk.
`CS(=O)(=O)Nc1cc2c(cc1Sc1ccccc1)C(=O)CC2` [Compound 6]: the IC50 was 50 nM at cyclooxygenase-2 (table of prepared examples) and over 100000 nM at cyclooxygenase-1. In the data set with paw edema, the “Rat Paw Edema ED50” value is reported as 0.16 mpk.
For `CS(=O)(=O)Nc1cc2c(cc1Sc1ccc(F)cc1)C(=O)CC2` [Compound 8], the IC50 at cyclooxygenase-2 (table of prepared examples) amounted to 100 nM.
Still for that read-out and setting: as for `CS(=O)(=O)Nc1cc2c(cc1Sc1ccc(Cl)cc1)C(=O)CC2` [Compound 9], the figure is 100 nM; as for `CS(=O)(=O)Nc1cc2c(cc1Sc1ccc(I)cc1)C(=O)CC2` [Compound 11], 10 nM.
In general, Cmax refers to the peak of the concentration-time curve. Regarding `CS(=O)(=O)Nc1cc2c(cc1Sc1ccc(F)cc1F)C(=O)CC2` [Compound 12, 5-Methanesulfonamido-6-(2,4-difluorophenylthio)-1-indanone], the figures for the “COX-2 % INHB” value at cyclooxygenase-2 (CONC 10 nM), on cyclooxygenase-2 (CONC 100 nM) and on cyclooxygenase-2 (CONC 1000 nM) were 43%, 87% and 91%, respectively. On cyclooxygenase-1, the concentration for half-maximal inhibition (IC50) is over 10000 nM. The “Rat Paw EDEMA ED30” value in the data set with paw edema is 0.3 ± .1 mpk. Also, in the data set on paw edema, the “Rat Paw Edema ED50” value is given as 0.3 mpk. Also, the “Rat Plasma Levels @ 1 hr” value in the data set “Rat plasma levels” (10 mpk) is given as 70 @ 10 mpk μg/ml. The compound also showed a Cmax in data set [1] (in vivo, 5 mg/kg, 5 mpk) of 35000 ng/mL. For the same compound, in data set [1] (in vivo, n = 2, estimated, read-out: t½ Monkey (n = 2) (Estimated)), the half-life was over 9 h.
For the compound `CS(=O)(=O)Nc1cc2c(cc1Sc1ccc(Cl)cc1F)C(=O)CC2` [Compound 14], at cyclooxygenase-2 (table of prepared examples), the IC50 was 13 nM.
Same read-out and setting: the value for `CS(=O)(=O)Nc1cc2c(cc1Sc1ccc(F)cc1Cl)C(=O)CC2` [Compound 16] was 11 nM.
Still for that read-out and setting: the value for `Cc1ccccc1Sc1cc2c(cc1NS(C)(=O)=O)CCC2=O` [Compound 19] was 100 nM.
Still for that read-out and setting: as for `Cc1ccc(Sc2cc3c(cc2NS(C)(=O)=O)CCC3=O)cc1` [Compound 20], the figure is 50 nM; as for `CS(=O)(=O)Nc1cc2c(cc1Sc1ccc(C(F)(F)F)cc1)C(=O)CC2` [Compound 22], 50 nM.
Consider `C=Cc1ccc(Sc2cc3c(cc2NS(C)(=O)=O)CCC3=O)cc1` [Compound 24], for which, on cyclooxygenase-2 (table of prepared examples), the IC50 came out at 100 nM.
As for `COc1ccc2c(c1)c(CC(=O)O)c(C)n2C(=O)c1ccc(Cl)cc1` [INDOMETHACIN, Indomethacin, reference compound], in the data set with paw edema, the “Rat Paw EDEMA ED30” value is listed as 1.1 ± .3 mpk.
